Experimental findings from ChEMBL document CHEMBL5143614, “Structure-activity relationship of 2-aminodibenzothiophene pharmacophore and the discovery of aminobenzothiophenes as potent inhibitors of Mycobacterium smegmatis” (Bioorg Med Chem Lett, 2022) are described below.

SMILES strings stand for the structures. Converted amounts (≈) assume the structure as drawn.

The subject of one series is RWPE-1. Description: Cytotoxicity against human RWPE-1 cells assessed as cell viability at 50 ug/ml after 72 hrs by MTT assay. The series is classed as toxicity, cell-based. Particulars: rwpe-1, 72 h, dose 50 µg/ml. On the technique in general: Formazan colour is commonly taken as a measure of viable cells.
On to `Nc1ccc2sccc2c1`, for which the Activity result was “Toxic”. Same read-out and setting: the entry for `Nc1ccc2sc3ccccc3c2c1` is “Toxic”; for `Nc1ccc2ccsc2c1` it is “Toxic”.

As for `Nc1ccc2oc3ccccc3c2c1`, the Activity entry is recorded as “Toxic”. Regarding `Nc1ccc2occc2c1`, the Activity entry was “Toxic”.

Another series concerns Mycolicibacterium smegmatis. Description: Antitubercular activity against Mycobacterium smegmatis ATCC 700084 after 48 hrs by microdilution assay. The series is classed as functional.
Details: not given
(In general: In broth dilution the organism is exposed to a series of concentrations in liquid medium.)
A word on the MIC: it is the smallest concentration in the dilution series that meets the test's criterion for growth inhibition. Higher therefore signals a need for much substance. On to `O=S(=O)(Nc1ccc2sc3ccccc3c2c1)c1ccccc1`, for which the minimal inhibitory concentration (MIC) was greater than 100 µg/mL. On the same count and under the same terms, the figure for `Nc1ccc2c(c1)-c1ccccc1C2` is 25 µg/mL (≈ 138 µM); for `Nc1cccc2c1sc1ccccc12` it is 12.5 µg/mL (≈ 62.7 µM). Same read-out and setting: the figure for `Nc1ccc2sccc2c1` is 0.78 µg/mL (≈ 5.23 µM); for `Nc1ccc2[nH]ccc2c1` it is greater than 100 µg/mL; for `Nc1cccc2sccc12` it is 50 µg/mL (≈ 335 µM). Same read-out and setting: to `CCCCCCNc1ccc2sc3ccccc3c2c1` belongs greater than 100 µg/mL; to `c1ccc2c(c1)sc1ccc(-n3cccc3)cc12`, greater than 100 µg/mL; to `NNC(=O)c1ccncc1` [ISONIAZID], 3.13 µg/mL (≈ 22.8 µM). As for `CCNc1ccc2sc3ccccc3c2c1`, the minimal inhibitory concentration (MIC) was greater than 100 µg/mL. The same measure, in the same setting: to `Nc1ccc2sc3ccccc3c2c1` belongs 3.13 µg/mL (≈ 15.7 µM); to `Nc1ccc2sc3ccc(N)cc3c2c1`, greater than 100 µg/mL; to `OB(O)c1ccc2sc3ccccc3c2c1`, 50 µg/mL (≈ 219 µM). On the same count and under the same terms, to `c1ccc(Nc2ccc3sc4ccccc4c3c2)cc1` belongs greater than 100 µg/mL. Still for that read-out and setting: the figure for `Nc1ccc2c(c1)-c1cc(N)ccc1S2(=O)=O` is greater than 100 µg/mL; for `Nc1ccc2ccsc2c1` it is 0.78 µg/mL (≈ 5.23 µM).

`Nc1ccc2c(c1)-c1ccccc1S2(=O)=O` registered an MIC greater than 100 µg/mL. For the compound `c1ccc2c(c1)sc1ccc(NC3CCCCC3)cc12`, the MIC is greater than 100 µg/mL. Take `CCN(CC)c1ccc2sc3ccccc3c2c1`: the minimal inhibitory concentration (MIC) was greater than 100 µg/mL.

On to `c1ccc2c(c1)sc1ccc(N3CCCC3)cc12`, for which the MIC was greater than 100 µg/mL. The same measure, in the same setting: to `CN(c1ccccc1)c1ccc2sc3ccccc3c2c1` belongs greater than 100 µg/mL. `c1ccc2c(c1)CCN2c1ccc2sc3ccccc3c2c1` showed a minimal inhibitory concentration (MIC) greater than 100 µg/mL. Still for that read-out and setting: to `c1ccc2c(c1)sc1ccc(N3CCOCC3)cc12` belongs greater than 100 µg/mL; to `Nc1ccc2oc3ccccc3c2c1`, 3.13 µg/mL (≈ 17.1 µM).

In turn, `Nc1ccc2occc2c1` returned an MIC of 1.56 µg/mL (≈ 11.7 µM).

`Nc1ccc2[nH]c3ccccc3c2c1`: the MIC was greater than 100 µg/mL.

Compound `c1ccc2c(c1)CCCN2c1ccc2sc3ccccc3c2c1` yielded an MIC greater than 100 µg/mL. For `OB(O)c1cccc2c1sc1ccccc12`, the MIC is greater than 100 µg/mL.

The subject of another series is Mycobacterium tuberculosis. Kind of series: Antitubercular activity against Mycobacterium tuberculosis H37Rv.
Details: not given
The series is classed as functional.
Take `Nc1ccc2c(c1)-c1ccccc1C2`: the lowest concentration to inhibit growth (MIC) was 32 µg/mL (≈ 177 µM).

Consider `Nc1ccc2sc3ccccc3c2c1`, for which the MIC worked out at 128 µg/mL (≈ 642 µM). Same read-out and setting: the figure for `Nc1ccc2c(c1)-c1cc(N)ccc1S2(=O)=O` is less than 2 µg/mL; for `Nc1ccc2oc3ccccc3c2c1` it is 64 µg/mL (≈ 349 µM).

Compound `Nc1ccc2[nH]c3ccccc3c2c1` displayed a minimal inhibitory concentration (MIC) of 16 µg/mL (≈ 87.8 µM).
